Laboratory results: publication PMC8758481, “Astroglial tracer BU99008 detects multiple binding sites in Alzheimer’s disease brain” (Molecular Psychiatry, 2021)
Where two headings read alike, the source gives them in different places.

Experiments:
[1] = molecular target: imidazoline-2 binding sites (I2BS); assay: ^3H-BU99008 competition binding assay with unlabelled ligands in temporal cortex brain homogenate; set-up: species or system human
Experimental: (§1) After 1 h incubation a similar protocol as saturation binding assay was done and the binding was quantified using the scintillation counter.
(§2) The competition binding data was fitted and analysed using non-linear regression competitive-binding function of GraphPad Prism 8.3 software to determine IC50 (half-maximal inhibitory concentration) values.

[2] = system: imidazoline-2 binding sites (I2BS); set-up: method as in PMID 29523627, PMID 24711648; settings: rhesus brain, dose-dependent; ref [43], [51]; cited from earlier work
[3] = molecular target: T1, monoamine oxidase B (MAO B) (Homo sapiens, UniProt P27338); assay: ^3H-Deprenyl competition binding assay in temporal cortex brain homogenate; settings: for IC50: vs 10 nM ^3H-Deprenyl, two-site fit
T1 construct: from tissue; host or cells: large frozen postmortem human brain sections (control, sporadic AD, AβPParc carrier)
T1 sequence (P27338 1-520): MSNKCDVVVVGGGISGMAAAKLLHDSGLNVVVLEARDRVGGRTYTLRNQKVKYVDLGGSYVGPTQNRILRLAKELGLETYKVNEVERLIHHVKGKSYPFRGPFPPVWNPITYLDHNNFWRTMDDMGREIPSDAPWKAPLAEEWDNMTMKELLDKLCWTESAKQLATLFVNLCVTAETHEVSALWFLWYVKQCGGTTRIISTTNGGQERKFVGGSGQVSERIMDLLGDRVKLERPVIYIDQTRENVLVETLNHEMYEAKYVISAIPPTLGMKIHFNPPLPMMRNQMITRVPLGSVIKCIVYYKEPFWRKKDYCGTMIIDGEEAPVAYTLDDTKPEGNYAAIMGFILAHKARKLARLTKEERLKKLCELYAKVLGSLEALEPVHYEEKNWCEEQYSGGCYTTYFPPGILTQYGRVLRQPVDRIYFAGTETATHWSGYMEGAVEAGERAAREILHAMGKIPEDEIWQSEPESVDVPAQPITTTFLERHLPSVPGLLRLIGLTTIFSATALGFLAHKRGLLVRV
Experimental: as §1, §2

[4] = molecular target: imidazoline-2 binding sites (I2BS); assay: ^3H-BU99008 competition binding with unlabelled BU99008 in the presence of MAO B inhibitors; set-up: species or system human; settings: for IC50: unlabelled BU99008 alone
Experimental: A similar protocol as saturation binding assay was performed after 1 h incubation and the binding was quantified using the scintillation counter.
as §2

[5] = system: imidazoline-2 binding sites (I2BS); set-up: method as in PMID 29523627; settings: human brain, pretreatment, highest dose of 80 mg; ref [43]; cited from earlier work
[6] = AD temporal cortex, vs 1 nM ^3H-BU99008, two-site fit, read-out: IC50_1
[7] = AD temporal cortex, vs 1 nM ^3H-BU99008, two-site fit, read-out: IC50_2
[8] = CN temporal cortex, vs 1 nM ^3H-BU99008, two-site fit, read-out: IC50_1
[9] = CN temporal cortex, vs 1 nM ^3H-BU99008, two-site fit, read-out: IC50_2

SMILES	IC50 [1, 6] [nM]	IC50 [1, 7] [nM]	IC50 [1, 8] [nM]	IC50 [1, 9] [nM]	proportion of High-affinity (HA; 10^-10 to -9 M) binding sites ([1]; CN, ^3H-BU99008 competition) [%]	proportion of Low-affinity (LA; 10^-7 to -6 M) binding sites ([1]; CN, ^3H-BU99008 competition) [%]	proportion of Low-affinity (LA; 10^-7 to -6 M) binding sites ([1]; AD, ^3H-BU99008 competition) [%]	proportion of Super high-affinity (SH; 10^-13 to -11 M) binding sites ([1]; CN, ^3H-BU99008 competition) [%]	also measured
Cl.c1ccc2oc(C3=NCCN3)cc2c1 [2-BFI, 2-(Benzofuran-2-yl)-2-imidazoline hydrochloride]	0.041	165	0.34	150	18	82	–	–	proportion of Super high-affinity (SH; 10^-13 to -11 M) binding sites ([1]; AD, ^3H-BU99008 competition): 19%
Cl.c1ccc2nc(C3=NCCN3)ccc2c1 [BU224, 2-(4,5-Dihydroimidazol-2-yl)quinoline hydrochloride]	–	–	0.026	186	–	56	100	44	^11C-BU99008 signal throughout the brain after pretreatment [2]: significantly reduced; IC50 ([1]; AD temporal cortex, vs 1 nM ^3H-BU99008, single binding site, read-out: IC50): 416 nM
Cn1c(C2=NCCN2)cc2ccccc21 [BU99008, 2-(4,5-dihydro-1H-imidazol-2-yl)-1-methyl-1H-indole]	1.43	342	–	2.45	75	–	22	25	majority of binding to LA sites [3]: 70–78%; IC50 ([3]; AD temporal cortex, read-out: IC50_1): 0.002 nM; IC50 ([3]; AD temporal cortex, read-out: IC50_2): 254 nM; IC50 ([3]; CN temporal cortex, read-out: IC50_1): 0.72 nM; IC50 ([3]; CN temporal cortex, read-out: IC50_2): 3110 nM; proportion of High-affinity (HA; 10^-10 to -9 M) binding sites ([1]; AD, ^3H-BU99008 competition): 78%; majority of binding to HA binding sites ([1]; both CN and AD cases, ^3H-BU99008 competition): 75–78%; IC50 ([4]; AD (85 years), one-site, read-out: IC50): 1.73 nM; IC50 ([4]; CN (71 years), vs 1 nM ^3H-BU99008, read-out: IC50_2 (HA)): 2.81 nM
c1ccc2c(c1)OCC(C1=NCCN1)O2 (stereo not drawn) [idazoxan]	–	–	–	–	–	–	–	–	average block of ^11C-BU99008 uptake across all regions [5]: 60%
C[C@H](NCc1ccc(OCc2cccc(F)c2)cc1)C(N)=O [safinamide]	–	–	–	–	–	–	–	–	effect on binding of BU99008 to the SH binding sites ([4]; CN, ^3H-BU99008 competition): completely blocked; decrease in ^3H-BU99008 total binding ([4]; CN, lower concentration ranges [10^-14-10^-9]): 15–30%; effect on binding of BU99008 to HA binding sites ([4]; both CN and AD cases, increasing concentrations of inhibitor): not affected
